From patent publication US20230322797A1, “SOLID FORMS, PHARMACEUTICAL COMPOSITIONS AND PREPARATION OF HETEROAROMATIC MACROCYCLIC ETHER COMPOUNDS” (Nuvalent, Inc., priority 2022, published 2023)
Where a name gives a salt, the structure may show the parent alone.

Assay: Solubility of Compound 1 salts in organic solvents (solvent volumes)
Format: physicochemical
Conditions: 2-MeTHF
Description: Preparation of Additional Salts: Additional salts shown in the Table below were prepared using procedures similar to those described above and the solubility of the resulting salts of Compound 1 was evaluated.

| SMILES | Solubility, Volume (at 10-20° C.) |
| --- | --- |
| CCn1nc(Cl)c2c1-c1cnc(N)c(c1)O[C@H](C)c1cc(F)ccc1-c1nn(C)cc1C2 [L-Tartaric Acid Salt] | 4-6 V |
| CCn1nc(Cl)c2c1-c1cnc(N)c(c1)O[C@H](C)c1cc(F)ccc1-c1nn(C)cc1C2 [Citric Acid salt] | 8-10 V |
| CCn1nc(Cl)c2c1-c1cnc(N)c(c1)O[C@H](C)c1cc(F)ccc1-c1nn(C)cc1C2 [H3PO4 salt] | >160 V |
| CCn1nc(Cl)c2c1-c1cnc(N)c(c1)O[C@H](C)c1cc(F)ccc1-c1nn(C)cc1C2 [Fumaric Acid salt] | 8-10 V |

Same assay, conditions: Acetone

| SMILES | Solubility, Volume (at 10-20° C.) |
| --- | --- |
| CCn1nc(Cl)c2c1-c1cnc(N)c(c1)O[C@H](C)c1cc(F)ccc1-c1nn(C)cc1C2 [L-Tartaric Acid Salt] | 2-4 V |
| CCn1nc(Cl)c2c1-c1cnc(N)c(c1)O[C@H](C)c1cc(F)ccc1-c1nn(C)cc1C2 [Citric Acid salt] | 6-8 V |
| CCn1nc(Cl)c2c1-c1cnc(N)c(c1)O[C@H](C)c1cc(F)ccc1-c1nn(C)cc1C2 [H3PO4 salt] | 58-60 V |
| CCn1nc(Cl)c2c1-c1cnc(N)c(c1)O[C@H](C)c1cc(F)ccc1-c1nn(C)cc1C2 [Fumaric Acid salt] | 8-10 V |

Same assay, conditions: CPME

| SMILES | Solubility, Volume (at 10-20° C.) |
| --- | --- |
| CCn1nc(Cl)c2c1-c1cnc(N)c(c1)O[C@H](C)c1cc(F)ccc1-c1nn(C)cc1C2 [L-Tartaric Acid Salt] | 60-70 V |
| CCn1nc(Cl)c2c1-c1cnc(N)c(c1)O[C@H](C)c1cc(F)ccc1-c1nn(C)cc1C2 [Citric Acid salt] | 330 V |
| CCn1nc(Cl)c2c1-c1cnc(N)c(c1)O[C@H](C)c1cc(F)ccc1-c1nn(C)cc1C2 [H3PO4 salt] | >500 V |
| CCn1nc(Cl)c2c1-c1cnc(N)c(c1)O[C@H](C)c1cc(F)ccc1-c1nn(C)cc1C2 [Fumaric Acid salt] | 50-60 V |

Same assay, conditions: EtOAc

| SMILES | Solubility, Volume (at 10-20° C.) |
| --- | --- |
| CCn1nc(Cl)c2c1-c1cnc(N)c(c1)O[C@H](C)c1cc(F)ccc1-c1nn(C)cc1C2 [L-Tartaric Acid Salt] | 12-14 V |
| CCn1nc(Cl)c2c1-c1cnc(N)c(c1)O[C@H](C)c1cc(F)ccc1-c1nn(C)cc1C2 [Citric Acid salt] | >400 V |
| CCn1nc(Cl)c2c1-c1cnc(N)c(c1)O[C@H](C)c1cc(F)ccc1-c1nn(C)cc1C2 [H3PO4 salt] | >100 V |
| CCn1nc(Cl)c2c1-c1cnc(N)c(c1)O[C@H](C)c1cc(F)ccc1-c1nn(C)cc1C2 [Fumaric Acid salt] | 80-90 V |

Same assay, conditions: IPA

| SMILES | Solubility, Volume (at 10-20° C.) |
| --- | --- |
| CCn1nc(Cl)c2c1-c1cnc(N)c(c1)O[C@H](C)c1cc(F)ccc1-c1nn(C)cc1C2 [L-Tartaric Acid Salt] | 18-20 V |
| CCn1nc(Cl)c2c1-c1cnc(N)c(c1)O[C@H](C)c1cc(F)ccc1-c1nn(C)cc1C2 [Citric Acid salt] | 24-28 V |
| CCn1nc(Cl)c2c1-c1cnc(N)c(c1)O[C@H](C)c1cc(F)ccc1-c1nn(C)cc1C2 [H3PO4 salt] | 140-150 V |
| CCn1nc(Cl)c2c1-c1cnc(N)c(c1)O[C@H](C)c1cc(F)ccc1-c1nn(C)cc1C2 [Fumaric Acid salt] | 8-9 V |

Same assay, conditions: IPAc

| SMILES | Solubility, Volume (at 10-20° C.) |
| --- | --- |
| CCn1nc(Cl)c2c1-c1cnc(N)c(c1)O[C@H](C)c1cc(F)ccc1-c1nn(C)cc1C2 [L-Tartaric Acid Salt] | 52-56 V |
| CCn1nc(Cl)c2c1-c1cnc(N)c(c1)O[C@H](C)c1cc(F)ccc1-c1nn(C)cc1C2 [Citric Acid salt] | >400 V |
| CCn1nc(Cl)c2c1-c1cnc(N)c(c1)O[C@H](C)c1cc(F)ccc1-c1nn(C)cc1C2 [H3PO4 salt] | >400 V |
| CCn1nc(Cl)c2c1-c1cnc(N)c(c1)O[C@H](C)c1cc(F)ccc1-c1nn(C)cc1C2 [Fumaric Acid salt] | 90-100 V |

Same assay, conditions: MeCN

| SMILES | Solubility, Volume (at 10-20° C.) |
| --- | --- |
| CCn1nc(Cl)c2c1-c1cnc(N)c(c1)O[C@H](C)c1cc(F)ccc1-c1nn(C)cc1C2 [L-Tartaric Acid Salt] | 30-32 V |
| CCn1nc(Cl)c2c1-c1cnc(N)c(c1)O[C@H](C)c1cc(F)ccc1-c1nn(C)cc1C2 [Citric Acid salt] | 300-400 V |
| CCn1nc(Cl)c2c1-c1cnc(N)c(c1)O[C@H](C)c1cc(F)ccc1-c1nn(C)cc1C2 [H3PO4 salt] | >400 V |
| CCn1nc(Cl)c2c1-c1cnc(N)c(c1)O[C@H](C)c1cc(F)ccc1-c1nn(C)cc1C2 [Fumaric Acid salt] | 150-200 V |

Same assay, conditions: THF

| SMILES | Solubility, Volume (at 10-20° C.) |
| --- | --- |
| CCn1nc(Cl)c2c1-c1cnc(N)c(c1)O[C@H](C)c1cc(F)ccc1-c1nn(C)cc1C2 [L-Tartaric Acid Salt] | 8-10 V |
| CCn1nc(Cl)c2c1-c1cnc(N)c(c1)O[C@H](C)c1cc(F)ccc1-c1nn(C)cc1C2 [Citric Acid salt] | 10-12 V |
| CCn1nc(Cl)c2c1-c1cnc(N)c(c1)O[C@H](C)c1cc(F)ccc1-c1nn(C)cc1C2 [H3PO4 salt] | >160 V |
| CCn1nc(Cl)c2c1-c1cnc(N)c(c1)O[C@H](C)c1cc(F)ccc1-c1nn(C)cc1C2 [Fumaric Acid salt] | 3-4 V |

Same assay, conditions: Toluene

| SMILES | Solubility, Volume (at 10-20° C.) [V] |
| --- | --- |
| CCn1nc(Cl)c2c1-c1cnc(N)c(c1)O[C@H](C)c1cc(F)ccc1-c1nn(C)cc1C2 [L-Tartaric Acid Salt] | >400 |
| CCn1nc(Cl)c2c1-c1cnc(N)c(c1)O[C@H](C)c1cc(F)ccc1-c1nn(C)cc1C2 [Citric Acid salt] | >400 |
| CCn1nc(Cl)c2c1-c1cnc(N)c(c1)O[C@H](C)c1cc(F)ccc1-c1nn(C)cc1C2 [H3PO4 salt] | >400 |
| CCn1nc(Cl)c2c1-c1cnc(N)c(c1)O[C@H](C)c1cc(F)ccc1-c1nn(C)cc1C2 [Fumaric Acid salt] | >400 |

Same assay, conditions: t-AmOH

| SMILES | Solubility, Volume (at 10-20° C.) |
| --- | --- |
| CCn1nc(Cl)c2c1-c1cnc(N)c(c1)O[C@H](C)c1cc(F)ccc1-c1nn(C)cc1C2 [L-Tartaric Acid Salt] | 18-20 V |
| CCn1nc(Cl)c2c1-c1cnc(N)c(c1)O[C@H](C)c1cc(F)ccc1-c1nn(C)cc1C2 [Citric Acid salt] | 86-90 V |
| CCn1nc(Cl)c2c1-c1cnc(N)c(c1)O[C@H](C)c1cc(F)ccc1-c1nn(C)cc1C2 [H3PO4 salt] | >400 V |
| CCn1nc(Cl)c2c1-c1cnc(N)c(c1)O[C@H](C)c1cc(F)ccc1-c1nn(C)cc1C2 [Fumaric Acid salt] | 22-24 V |

Assay: Solubility of salts of Compound 2 and free base in distilled water (gravimetric)
Format: physicochemical
Conditions: distilled water, RT, stirred 3 days, gravimetric
Description: Solubility of the scaled-up salts of Compound 2 and free base Compound 2 was assessed in distilled water at RT. Approximately 30 mg of solid was weighed directly into 2 mL vials, and a 6 mm stir bar was added to each vial. Water was then incrementally added to the vials (starting with 1 vol.) and the resulting slurries were left to stir for 10-15 min prior to the next addition. As all solids remained in slurries upon the addition of 1 mL of water, the gravimetric method was adopted, and the vials were stirred at RT for 3 days before centrifuging. Supernatant solutions were recovered and evaporated to dryness at 50° C. in atmosphere on a hot plate, then placed at 50° C. under vacuum (˜−29 inHg) for 3 h before final weighing.

| SMILES | Solubility (mg solid/mL water) |
| --- | --- |
| CCn1cc(Cc2cn(C)nc2-c2ccc(F)cc2[C@@H](C)Oc2cc(Br)cnc2N)c(Cl)n1 [Free Base] | <3 |

Same assay, conditions: solid recovered after slurry in water at RT

| SMILES | XRPD Pattern Recovered |
| --- | --- |
| CCn1cc(Cc2cn(C)nc2-c2ccc(F)cc2[C@@H](C)Oc2cc(Br)cnc2N)c(Cl)n1 [Free Base] | Amorphous |
